In patent publication US20210378241A1, “COMBINATION COMPRISING A BENZAMIDE HERBICIDE AND A PYRIDINE CARBOXYLIC ACID HERBICIDE, AND A METHOD FOR MAKING AND USING THE COMBINATION” (Generic Crop Science LLC, priority 2020, published 2021):

What was measured:
velvetleaf = conditions: 0.10 kg/ha, regardless of the application method; cited from earlier work
smooth pigweed = conditions: 0.05 to 0.14 kg ai/ha, regardless of application method or herbicide rate; cited from earlier work
[1] = tested on: weeds in seedling alfalfa; assay: Field trial in seedling alfalfa, Brawley, Calif.: weed density (weeds counted on square yard quadrats); type: in vivo; conditions: use rates of Table 5
From the text: (§1) The objective of this study was to evaluate the performance of PRONAMIDE and IMAZETHAPYR in commercial alfalfa hay production in Brawley, Calif. Trial treatments applied were as follows:
(§2) Treatments were applied on seedling alfalfa on March 14th at second to third trifoliate stage (3-4 inches tall). Treatment applications were made using a research CO2 backpack sprayer calibrated to deliver 50 gallons of solution per acre operating at 30 PSI. Weeds on the plots were on average 2-3 inches tall. Weather conditions during application were 34.3% RH, air and soil temperatures were 68° F. and 56.3° F. respectively, and soil moisture was dry.
(§3) Trial was rated at 6, 13, 20, 27 and 34 days after product application (DAA). On each rating date, Percent phytotoxicity and weed control based on a 0 to 100% visual scale, and weed density (number of weeds counted on 3 square yard quadrats) per plot were conducted.
(§4) Data was checked for normality assumptions and analyzed using a univariate Analysis of Variance, and the Least Significant Difference (LSD) mean separation test at a significance level of (α=0.1). Significant differences (p<0.1) were found for the dependent variables assessed at all rating dates (See ANOVA tables). Overall, treatments 5 (Raptor 4), 4 (PRONAMIDE and IMAZETHAPYR) and treatment 3 (WW2019-2) consistently provided the best control (higher % control and lower weed densities). Treatment efficacy as evidenced by % burndown (percent control was higher than 70% in all treatments 3-5) and weed counts (remained steady or declined up to this rating date) peaked at 27 DAA and subsequently declined (weed counts increased and percent control declined) at 34 DAA.

[2] = tested on: weeds in seedling alfalfa; assay: Field trial in seedling alfalfa, Brawley, Calif.: percent weed control (burndown), 0 to 100% visual scale; type: in vivo; conditions: for Percent Weed Control (Burndown), mean: single application on seedling alfalfa, use rates of Table 5, 4 replicates; for Overall weed control (higher % control and lower weed densities), in words: all rating dates 6-34 DAA
From the text: as §1, §2, §3, §4

jimsonweed = conditions: 0.05 kg/ha; cited from earlier work

Compound | Control of velvetleaf (velvetleaf) [%] | Control of smooth pigweed (smooth pigweed) [%] | Weed Density, mean ([1]; 6 DA-A) [Weeds per yd^2] | Weed Density, mean ([1]; 13 DA-A) [Weeds per yd^2] | Weed Density, mean ([1]; 20 DA-A) [Weeds per yd^2] | Weed Density, mean ([1]; 27 DA-A) [Weeds per yd^2] | Weed Density, mean ([1]; 34 DA-A) [Weeds per yd^2] | Percent Weed Control (Burndown), mean ([2]; 6 DA-A) [%] | Percent Weed Control (Burndown), mean ([2]; 13 DA-A) [%] | Percent Weed Control (Burndown), mean ([2]; 20 DA-A) [%] | Percent Weed Control (Burndown), mean ([2]; 27 DA-A) [%] | Percent Weed Control (Burndown), mean ([2]; 34 DA-A) [%] | Overall weed control (higher % control and lower weed densities), in words ([2]; listed as Treatment 3) | Overall weed control (higher % control and lower weed densities), in words ([2]; listed as WW2019-2) | Control of jimsonweed, better postemergence compared to soil applications (jimsonweed) [%] | Overall weed control (higher % control and lower weed densities), in words [2]
CCc1cnc(C2=NC(C)(C(C)C)C(=O)N2)c(C(=O)O)c1 (centres unmarked) [IMAZETHAPYR, 2-[4,5-dihydro-4-methyl-4-(1-methylethyl)-5-oxo-1H-imidazol-2-yl]-5-ethyl-3-pyridinecarboxylic acid] | ≥ 90 | ≥ 90 | 35 | 25 | 29 | 24 | 39 | 28 | 33 | 75 | 79 | 38 | good weed control | best control | 30 | –
C#CC(C)(C)NC(=O)c1cc(Cl)cc(Cl)c1 [PRONAMIDE, 3,5-dichloro-n-(1,1-dimethyl-2-propynyl) benzamide] | – | – | 51 | 41 | 42 | 43 | 81 | 15 | 20 | 38 | 25 | 8 | – | – | – | less beneficial weed control
